Measured values published in patent publication US20250276995A1, “PRODUCTION METHOD FOR PEPTIDE COMPOUND” (CHUGAI SEIYAKU KABUSHIKI KAISHA, priority 2022, published 2025).

Experiment: Verification of solubility of carbodiimide-derived urea in NMP and DMF
Assay type: physicochemical
Settings: for Re-precipitation: 0.77 M, after 24 hours or more
Text: The concentration of carbodiimide at the time of preactivation performed in the elongation steps of Reference Example 2-3 and Examples 2-4 and 2-5 was 0.77 mol/L. To confirm the risk of precipitation in case that all carbodiimide is converted to urea, the solubility in NMP and DMF was confirmed according to the following procedure, using the DIC-derived urea with which precipitates were confirmed in Reference Examples 2-3 and the DsBC-derived urea with which no precipitates were confirmed in Examples 2-4 and 2-5.
Into 1.5 mL vials with a screw cap, DIC urea (compound SS05) and DsBC urea (compound SS06) synthesized in Example 1-3 were weighed and placed as described in Table 11, and NMP or DMF was added to be each concentration. The mixture was stirred at room temperature for 5 minutes or more, and then allowed to stand to confirm whether the urea was dissolved or not. […]

[1] = solvent DMF, concentration 0.77 M (0.77 mol/L), room temperature
[2] = solvent NMP, concentration 0.77 M (0.77 mol/L), room temperature

Dissolved or not (in DMF at 0.17 M or more)	Dissolved or not (in NMP at a concentration of 0.34 M or more)	Dissolved or not (solvent DMF, concentration 0.17 M, room temperature)	Dissolved or not (solvent DMF, concentration 0.34 M, room temperature)	Dissolved or not (solvent DMF, concentration 0.38 M, room temperature)	Dissolved or not (solvent DMF, concentration 0.51 M, room temperature)	Dissolved or not [1]	Dissolved or not (solvent NMP, concentration 0.17 M, room temperature, stirred 5 minutes or more then allowed to stand)	Dissolved or not (solvent NMP, concentration 0.34 M, room temperature)	Dissolved or not (solvent NMP, concentration 0.38 M, room temperature)	Dissolved or not (solvent NMP, concentration 0.51 M, room temperature)	Dissolved or not [2]	Re-precipitation (DMF)	Re-precipitation (NMP)	Dissolved or not (solvent DMF, concentration 0.77 M (0.77 mol/L), room temperature, listed as DsBC Urea (SS06))	Dissolved or not (solvent NMP, concentration 0.77 M (0.77 mol/L), room temperature, listed as DsBC Urea (SS06))	SMILES
not fully dissolved	not fully dissolved	not fully dissolved	not fully dissolved	not fully dissolved	not fully dissolved	not fully dissolved	dissolved	not fully dissolved	not fully dissolved	not fully dissolved	not fully dissolved	–	–	–	–	CC(C)NC(=O)NC(C)C [SS05, 1,3-Diisopropylurea]
–	–	–	–	–	–	completely dissolved	–	–	–	–	completely dissolved	no re-precipitation was confirmed	no re-precipitation was confirmed	dissolved	dissolved	CCC(C)NC(=O)NC(C)CC (stereo not shown) [SS06, 1,3-di-sec-butylurea]
–	–	–	–	–	–	completely dissolved	–	–	–	–	completely dissolved	no re-precipitation was confirmed	no re-precipitation was confirmed	–	–	CCNC(=O)NC(C)(C)C [SS07, 1-(tert-butyl)-3-ethylurea]
